{"source": "paper PMC5693111", "about": "“Small molecule Photoregulin3 prevents retinal degeneration in the Rho^P23H mouse model of retinitis pigmentosa” (eLife, 2017)", "target": "T1, NR2E3 (Homo sapiens, UniProt Q9Y5X4)", "T1 construct": "aa 90–410 (expressed as His8-MBP-TEV fusion, tag removed)", "T1 sequence (Q9Y5X4 90-410)": "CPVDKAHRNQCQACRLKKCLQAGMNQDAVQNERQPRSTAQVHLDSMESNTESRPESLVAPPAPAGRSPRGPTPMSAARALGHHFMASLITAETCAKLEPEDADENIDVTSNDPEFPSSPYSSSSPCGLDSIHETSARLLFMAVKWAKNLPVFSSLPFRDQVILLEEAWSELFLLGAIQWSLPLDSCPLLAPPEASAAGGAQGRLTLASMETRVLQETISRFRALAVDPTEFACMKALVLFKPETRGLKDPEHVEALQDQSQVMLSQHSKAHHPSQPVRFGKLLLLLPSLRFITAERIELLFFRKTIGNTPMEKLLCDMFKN", "assay": "isothermal titration calorimetry ([…] PR3 injected into […] NR2E3; one site model, qualitative)", "format": "binding"}
{"compound": "COc1cc2nc(CN3CC=C(c4ccccc4)CC3)nc(O)c2cc1OC", "note": "[PR3, Photoregulin3]", "values": [{"measurement": "Kd", "value": "~67", "unit": "µM"}]}
